Assay [1] has as its target T1, Cu^2+-induced Aβ1–42 aggregation (Homo sapiens, UniProt P05067).
T1 construct: Aβ1–42 (Adooq Bioscience, CA, USA); purchased Adooq Bioscience
Kind of assay: Cu2+-induced Aβ1–42 aggregation, ThT fluorescence assay. It is filed as biochemical. The following applies: compound 50 µM; Aβ1–42 25 µM; Cu^2+ 25 µM; 24 h, 37 °C. On the procedure: (§1) Initially, CuSO4 or ZnCl2 was added to Aβ1–42 peptides at room temperature and the mixture incubated with or without drugs for 24 h at 37 °C. The fluorescence intensity of Aβ1–42 peptide alone was designated as 100%.
(§2) Mixtures of the peptide (10 µL, 25 µM final concentration) with or without Cu^2+ or Zn^2+ (10 µL, 25 μM final concentration) and the test compound (10 µL, 50 μM final concentration) were incubated at 37 °C for 24 h. Then 50 mM glycine-NaOH buffer (pH 8.0) containing ThT (5 µM) was added to 20 µL of the sample and diluted to afford a final volume of 200 µL. Fluorescence intensities of the solutions were recorded (excitation, 450 nm; emission, 485 nm). The percentage of […] was calculated by the expression (1 − IFi/IFc) × 100, in which IFi and IFc are the fluorescence intensities obtained for Aβ in the presence and absence of inhibitors, respectively.

In assay [2] the target is T2, Zn^2+-induced Aβ1–42 aggregation (Homo sapiens, UniProt P05067).
T2 construct: Aβ1–42 (Adooq Bioscience, CA, USA); purchased Adooq Bioscience
T2 sequence (P05067 672-713 limits assumed): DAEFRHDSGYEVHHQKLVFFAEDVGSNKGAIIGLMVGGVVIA
The experiment in a line: Zn2+-induced Aβ1–42 aggregation, ThT fluorescence assay. The settings on record: compound 50 µM; Aβ1–42 25 µM; Zn^2+ 25 µM; 24 h, 37 °C. It is filed as biochemical. How it is done: as §1, §2

Assay [3] concerns the target T3, Aβ1–42 (Homo sapiens, UniProt P05067).
T3 construct: Aβ1–42 (Adooq Bioscience, CA, USA); purchased Adooq Bioscience
Kind of assay: Self-induced Aβ1–42 aggregation, thioflavin T (ThT) fluorescence assay. It counts as biochemical. The settings on record: 25 µM Aβ1–42; compound 0.3-27 µM; 37 °C, 48 h; ThT fluorescence; read-out: EC50 against self-induced Aβ1–42 aggregation. On the procedure: The novel hybrid 8-hydroxyquinoline-indole derivatives, 7a–7e, 12a, 12b, and the (8-hydroxyquinolin-2-yl)methyl-4-(1H-indole-2-carbonyl)piperazine-1-carboxylate analogs 18a–18h were evaluated for inhibitory activity against self-induced Aβ1–42 aggregation at five different concentrations (0.3, 1.0, 3, 9 and 27 µM) with 25 µM Aβ1–42, utilizing a thioflavin T (ThT) fluorescence assay with clioquinol, 1 as a positive control (Figure 3). In the absence of inhibitor, the self-induced Aβ1–42 aggregation ThT fluorescence was recorded as 115 arbitrary units (a.u.). The self-induced Aβ1–42 aggregation results for all the above synthetic analogs from the ThT fluorescence assay are shown in Table 1. […] The thioflavin T (ThT)-fluorescence assay was used to measure the inhibition of Aβ aggregation. Aβ1–42 (Adooq Bioscience, CA, USA) was pretreated with 1 mL of hexafluoroisopropanol (HFIP) to afford a stock solution, which was aliquoted into small samples. The solvent was evaporated at room temperature, and samples were stored at −80 °C. For Aβ1–42 aggregation inhibition experiments, phosphate buffer (pH 7.4) was added to the Aβ stock solution to afford a 50 µM concentration before use. A mixture of the Aβ1–42 peptide (10 µL, 25 µM final concentration) with or without the test compound (10 µL; 0.3, 1.0, 3, 9, and 27 µM) was incubated at 37 °C for 48 h. Blanks using phosphate buffer (pH 7.4) instead of Aβ, with or without test compound, were also assessed. Then 50 mM glycine-NaOH buffer (pH 8.0) containing ThT (5 µM) was added to 20 µL of the sample to afford a final volume of 200 µL. The fluorescence intensities were recorded (excitation, 450 nm; emission, 485 nm). The fluorescence intensities were background corrected to the no enzyme control and 100% of intensity reflected no inhibition of aggregation. To obtain the normalized amyloid aggregation inhibition relative to the control group, the amyloid aggregation/cell values were further divided by the total amyloid fluorescence of the control group. Using GraphPad Prism, the amyloid aggregation values (relative to control group) were entered along the corresponding concentrations for the triplicates and then a log transformation was obtained. Using the dose–response simulation module in GraphPad Prism, nonlinear regression fit (curve) was then generated for each small molecule with various concentrations used. Curves were then compared to determine if they were statistically different, by performing the best-fit values of selected unshared parameters between data sets and extra sum-of-squares F test, allowing for selection of the simpler model unless the P value was less than 0.05. The logEC50 output parameter was then selected to obtain the EC50 for each of the dose–response curves for the small molecules.

Assay [4] concerns SY5Y-APPSw cells. Kind of assay: Protein aggregation in SY5Y-APPSw cells (ThT staining). It is filed as cell-based. The following applies: 1 µM, 48 h, 37 °C; compared to clioquinol (1). How it is done:
In another study compounds 7a–7d, 18c–18f, and 18h were also evaluated for their ability to reduce protein aggregation in SY5Y-APPSw cells. SY5Y-APPSw cells were exposed to the above protein aggregation inhibitors and parent compound 1 at 1 µM for 48 h at 37 °C. Cells were assessed for amyloid deposits by staining with 0.1% w/v ThT, counterstaining nuclei with DAPI, and mean ThT fluorescence signal per nucleus calculated over multiple fields. All the analogs reduced fluorescence intensity (indicative of protein aggregation) by 22–67% (P < 0.001 by 2-tailed t-test). […] Thioflavin-T fluorescence assays for in vitro amyloid aggregation and cell culture models of amyloid aggregation overlap but are not identical. This is due to the fact that thioflavin in cell-culture stains not just amyloid aggregates but also other amyloid-like fibrillar structures. Another important difference is that in vitro aggregation is assessed after 24 h, whereas aggregation in cell culture is assessed after 48 h.
(§3) Human Embryonic Kidney cells that overexpress tau protein (HEK-tau) cells or SY5Y neuroblastoma cells that express a familial-AD mutant of amyloid precursor protein (SY5Y-APPSw cells) were each seeded in 96-well plates at 8000 cells per well. After 24 h, cells were supplemented with test compound at 1 µM after diluting with medium. Vehicle only control was also included for each experiment. The cells were cultured for an additional 48 h at 37 °C. Both the cell lines were able to reach approximately 80% confluency in 48 h. Cells were assessed for amyloid deposits by staining with 0.1% w/v ThT, counterstaining nuclei with DAPI, and calculating mean ThT fluorescence signal per nucleus over multiple fields.

In assay [5] the test system is HEK-tau cells. The experiment in a line: Protein aggregation in HEK-tau cells (ThT staining). It is filed as cell-based, Human. The settings on record: 1 µM, 48 h, 37 °C; compared to clioquinol (1). How it is done:
In our study, we have shown that restoring metal homeostasis by treatment with hybrid 8-hydroxyquinoline-indole analogs reduces tau- and amyloid-mediated protein aggregation, and their associated neurotoxicity. Analogs 7a–7d, 18c–18f, and 18h were evaluated for their ability to reduce protein aggregation in HEK-tau cells. HEK-tau cells were exposed to the above Aβ1–42 aggregation inhibitors and parent drug clioquinol (1) at 1 µM for 48 h at 37 °C. Cells were assessed for amyloid deposits by staining with 0.1% w/v thioflavin T, counterstaining nuclei with DAPI, and mean ThT fluorescence signal per nucleus was calculated over multiple fields. All the analogs reduced fluorescence intensity (indicative of protein aggregation) by 26–62% (P < 0.001 by 2-tailed t-test).
as §3

“Also recorded” adds a separate entry of the source.

The term EC50 denotes the concentration that produces a half-maximal response.

T1 sequence (P05067 672-713 limits assumed): as above
T3 sequence (P05067 672-713 limits assumed): as above

With `Oc1c(I)cc(Cl)c2cccnc12` [Compound 1, Clioquinol, reference compound], in assay [1], the “decrease of ThT fluorescence / inhibition of Cu^2+-induced Aβ1–42 aggregation” value came out at 62.5%. Moreover, the “decrease of ThT fluorescence / inhibition of Zn^2+-induced Aβ1–42 aggregation” value in assay [2] amounted to 57.2%. Besides, the EC50 in assay [3] was found to be 9.95 µM. With `O=C(O)c1cc2ccccc2[nH]1` [Compound 5a, 1H-indole-2-carboxylic acid, reference compound], the 50% effective concentration (EC50) in assay [3] is greater than 20 µM. Take `O=C(OCc1ccc2cccc(O)c2n1)c1cc2ccccc2[nH]1` [Compound 7a, (8-Hydroxyquinolin-2-yl)methyl-1H-indole-2-carboxylate]: in assay [4], the “protein aggregation inhibition in SY5Y-APPSw cells, result in words” value is “most effective”. Besides, the 50% effective concentration (EC50) in assay [3] was determined as 4.26 µM. As to `O=C(OCc1ccc2c(Cl)cc(Cl)c(O)c2n1)c1cc2ccccc2[nH]1` [Compound 7b, (5,7-Dichloro-8-hydroxyquinolin-2-yl)methyl-1H-indole-2-carboxylate], the EC50 in assay [3] came out at 9.28 µM. As to `COc1ccc2[nH]c(C(=O)OCc3ccc4cccc(O)c4n3)cc2c1` [Compound 7c, (8-Hydroxyquinolin-2-yl)methyl-5-methoxy-1H-indole-2-carboxylate], the EC50 in assay [3] was 3.22 µM. Take `O=C(OCc1ccc2cccc(O)c2n1)c1cc2cc(F)ccc2[nH]1` [Compound 7d, (8-Hydroxyquinolin-2-yl)methyl-5-fluoro-1H-indole-2-carboxylate]: in assay [3], the EC50 is 6.34 µM. Take `O=C(OCc1ccc2c(Cl)cc(Cl)c(O)c2n1)c1cc2cc(F)ccc2[nH]1` [Compound 7e, (5,7-Dichloro-8-hydroxyquinolin-2-yl)methyl-5-fluoro-1H-indole-2-carboxylate]: in assay [3], the half-maximal effective concentration (EC50) was 9.52 µM.

As to `O=C(NCc1ccc2c(Cl)cc(Cl)c(O)c2n1)c1cc2ccccc2[nH]1` [Compound 12a, N-((5,7-Dichloro-8-hydroxyquinolin-2-yl)methyl)-1H-indole-2-carboxamide], in assay [3], the EC50 was greater than 10 µM. With `COc1ccc2[nH]c(C(=O)NCc3ccc4c(Cl)cc(Cl)c(O)c4n3)cc2c1` [Compound 12b, N-((5,7-Dichloro-8-hydroxyquinolin-2-yl)methyl)-5-methoxy-1H-indole-2-carboxamide], the EC50 in assay [3] is greater than 10 µM. For the compound `O=C(OCc1ccc2cccc(O)c2n1)N1CCN(C(=O)c2cc3ccccc3[nH]2)CC1` [Compound 18a, (8-Hydroxyquinolin-2-yl)methyl-4-(1H-indole-2-carbonyl)piperazine-1-carboxylate], the EC50 in assay [3] is greater than 10 µM. Same read-out and setting: for `O=C(OCc1ccc2c(Br)cc(Br)c(O)c2n1)N1CCN(C(=O)c2cc3ccccc3[nH]2)CC1` [Compound 18b, (5,7-Dibromo-8-hydroxyquinolin-2-yl)methyl-4-(1H-indole-2-carbonyl)piperazine-1-carboxylate] the value was greater than 10 µM. In the case of `O=C(OCc1ccc2c(Cl)cc(Cl)c(O)c2n1)N1CCN(C(=O)c2cc3ccccc3[nH]2)CC1` [Compound 18c, (5,7-Dichloro-8-hydroxyquinolin-2-yl)methyl-4-(1H-indole-2-carbonyl)piperazine-1-carboxylate], the “decrease of ThT fluorescence / inhibition of Cu^2+-induced Aβ1–42 aggregation” value in assay [1] was 76.6%. In addition, the “protein aggregation inhibition in SY5Y-APPSw cells, result in words” value in assay [4] is given as “effective in reducing protein aggregation”. Moreover, in assay [2], the “decrease of ThT fluorescence / inhibition of Zn^2+-induced Aβ1–42 aggregation” value stood at 70.3%. In assay [3], the EC50 came out at 1.72 µM. The “protein aggregation inhibition in HEK-tau cells, result in words” value in assay [5] is “most effective; also recorded: effective in reducing protein aggregation”.

With `COc1ccc2[nH]c(C(=O)N3CCN(C(=O)OCc4ccc5cccc(O)c5n4)CC3)cc2c1` [Compound 18d, (8-Hydroxyquinolin-2-yl)methyl-4-(5-methoxy-1H-indole-2-carbonyl)piperazine-1-carboxylate], the “decrease of ThT fluorescence / inhibition of Cu^2+-induced Aβ1–42 aggregation” value in assay [1] is 66.1%. For the same compound, in assay [4], the “protein aggregation inhibition in SY5Y-APPSw cells, result in words” value is “most effective; also recorded: effective in reducing protein aggregation”. Besides, the “decrease of ThT fluorescence / inhibition of Zn^2+-induced Aβ1–42 aggregation” value in assay [2] came to 59.3%. The EC50 in assay [3] was determined as 1.48 µM. Also, the “protein aggregation inhibition in HEK-tau cells, result in words” value in assay [5] is given as “effective in reducing protein aggregation”. Take `COc1ccc2[nH]c(C(=O)N3CCN(C(=O)OCc4ccc5c(Br)cc(Br)c(O)c5n4)CC3)cc2c1` [Compound 18e, (5,7-Dibromo-8-hydroxyquinolin-2-yl)methyl-4-(5-methoxy-1H-indole-2-carbonyl)piperazine-1-carboxylate]: the EC50 in assay [3] amounted to 2.49 µM. Consider `O=C(OCc1ccc2c(Cl)cc(Cl)c(O)c2n1)N1CCN(C(=O)c2cc3cc(F)ccc3[nH]2)CC1` [Compound 18g, (5,7-Dichloro-8-hydroxyquinolin-2-yl)methyl-4-(5-fluoro-1H-indole-2-carbonyl)piperazine-1-carboxylate], for which, in assay [3], the EC50 was greater than 10 µM.

With `O=C(OCc1ccc2cccc(O)c2n1)N1CCN(C(=O)c2cc3cc(F)ccc3[nH]2)CC1` [Compound 18h], the EC50 in assay [3] is 2.58 µM.

For the origin of these results see publication PMC7463714, “Design and Synthesis of Novel Hybrid 8-Hydroxy Quinoline-Indole Derivatives as Inhibitors of Aβ Self-Aggregation and Metal Chelation-Induced Aβ Aggregation” (Molecules, 2020).
